According to patent US11020358B2, “Method for the anti-senescence of and/or rejuvenating stem cells” (GWO XI STEM CELL APPLIED TECHNOLOGY CO., LTD., priority 2014, dated 2021):

Tested on: Wister rats
Assay: Liver fibrosis rat model: biochemical functional indexes of cardiac blood
Type: in vivo
Conditions: 200 mg/kg TAA i.p. once every three days for 60 days, cardiac blood 4 days after last injection
Procedure: 200 mg/kg of thioacetamide (TAA) was intraperitoneally injected to 8-week-old male Wister rats (n=35) once every three days for 60 days (i.e., 20 injections in total) to obtain a liver fibrosis rat model (hereinafter referred to as the “TAA group” rat). Additionally, rats that injected with equal volume of normal saline but not TAA were served as a “control group” (n=12). At 4 days after the last injection, four rats in the “control group” and three rats in the “TAA group” were anesthetized with ether and analyzed by the following experiments.
The cardiac blood of the “control group” and “TAA group” rats was collected and measured by a biochemical analyzer (Roche, Integra 800) to analyze the biochemical functional indexes, and thereby, evaluating the extent of hepatic damage. The biochemical functional indexes include the expression level of glutamate oxaloacetate transaminase (GOT), the expression level of glutamate pyruvate transaminase (GPT), the expression level of albumin, the expression level of total bilirubin, and prothrombin time.

Question: For `CC(=N)S` [TAA, thioacetamide], which Albumin is on record?
Answer: 2.8 ± 0.4 g/dL

Question: And the GOT?
Answer: 546 ± 48 Units/L

Question: And the GPT?
Answer: 138 ± 47 Units/L

Question: What about the Prothrombin time of the same compound?
Answer: 16.4 ± 3.0 s

Question: And the Total bilirubin?
Answer: 0.049 ± 0.009 mg/dL
